Results published in patent publication US9783496B2, “Oxindole compounds, solvent-free synthesis and use thereof” (Council of Scientific & Industrial Research, priority 2013, dated 2017).

Test system: M. smegmatis MC^2 155 strain
Assay: Antitubercular activity: growth inhibition of M. smegmatis in 96 well microtiter plate (absorbance at 600 nm)
Format: cell-based, Mycobacterium smegmatis
Conditions: Mycolicibacterium smegmatis, MC^2155, final concentration of compound 30 μM, 32 hrs, determined against DMSO, triplicate, read-out: Percentage inhibition
Method: The compounds were tested for their Anti Mycobacterial ability on M. smegmatis MC^2 155 strain. The series of compounds were obtained in 10 mM stock concentrations. Further, each compound was diluted with the required 100% (v/v) DMSO to achieve a working concentration of 1.5 mM. The inoculum for the assay was prepared by reviving a glycerol stock in Middlebrook 7H9 broth supplemented with 0.1% Tween 80 and 0.5% Glycerol. At the time of inoculation, 10% ADS was added to the media and the culture was incubated in a shaker incubator at 37° C. and 200 rpm. The O.D. of the inoculum reached to 0.8-1 approximately, a secondary inoculum was inoculated and subsequently incubated. This was incubated overnight till the O.D. of the inoculum reached 0.4 approx., following which the inoculum was diluted 1:1000 times. In a 96 well microtiter plate, a 2 μL aliquot of the 1.5 mM dilution of compound was added to each well in triplicate, to which 98 μL of inoculum dilution was added, making the final concentration of compound 30 μM. To each plate a set of controls was added to better ascertain the activity of the compounds. These included DMSO, which was taken as a growth control, and media control (Blank) and Rifampicin and Isoniazid, which were taken as positive controls of inhibition of Mycobacterium smegmatis. After the completion of the period of 32 hrs, the absorbance of the inoculum in wells was measured at 600 nm using a Multi Mode Reader. Absorbance is considered directly proportional to the increase in growth of bacteria, thus it gives a measure of the growth of bacteria in each well. Percentage inhibition was determined against DMSO.

Structure (SMILES)	inhibition at 30 µM [%]
CN1C(=O)C(OC(=O)c2cccc([N+](=O)[O-])c2)(C(=O)NC(C)(C)C)c2ccccc21 (stereo not shown) [Compound 4e, 3-(tert-Butylcarbamoyl)-1-methyl-2-oxoindolin-3-yl 3-nitro benzoate]	-5.24
CN1C(=O)C(OC(=O)c2ccc([N+](=O)[O-])cc2)(C(=O)NC(C)(C)C)c2ccccc21 (stereo not shown) [Compound 4f, 3-(tert-Butylcarbamoyl)-1-methyl-2-oxoindolin-3-yl 4-nitro benzoate]	21.5
COc1ccc(CC(=O)OC2(C(=O)NC(C)(C)C)C(=O)N(C)c3ccccc32)cc1 (stereo not shown)	44.2
CCC(=O)OC1(C(=O)NC(C)(C)C)C(=O)N(C)c2ccccc21 (stereo not shown) [Compound 4o, 3-(tert-Butylcarbamoyl)-1-methyl-2-oxoindolin-3-yl propionate]	-1.64
CN1C(=O)C(OC(=O)/C=C/c2ccccc2)(C(=O)NC(C)(C)C)c2ccccc21 (stereo not shown)	7.04
CN1C(=O)C(OC(=O)c2ccccc2)(C(=O)NC(C)(C)C)c2cc(Cl)ccc21 (stereo not shown) [Compound 4v, 3-(tert-Butylcarbamoyl)-5-chloro-1-methyl-2-oxoindolin-3-yl benzoate]	9.49
CN1C(=O)C(OC(=O)c2cc3ccccc3o2)(C(=O)NC(C)(C)C)c2ccccc21 (stereo not shown)	26.4
CN1C(=O)C(OC(=O)c2ccco2)(C(=O)NC(C)(C)C)c2ccccc21 (stereo not shown) [Compound 4h, 3-(tert-Butylcarbamoyl)-1-methyl-2-oxoindolin-3-yl furan-2-carboxylate]	24.1
CN1C(=O)C(OC(=O)c2ccccc2F)(C(=O)NC(C)(C)C)c2ccccc21 (stereo not shown) [Compound 4b, 3-(tert-Butylcarbamoyl)-1-methyl-2-oxoindolin-3-yl 2-fluoro benzoate]	24.6
CC(C)(C)NC(=O)C1(OC(=O)c2ccccc2)C(=O)Nc2ccccc21 (stereo not shown) [Compound 4s, 3-(tert-Butylcarbamoyl)-2-oxoindolin-3-yl benzoate]	19.1
C=CCN1C(=O)C(OC(=O)c2ccccc2)(C(=O)NC(C)(C)C)c2ccccc21 (stereo not shown) [Compound 4r, 1-Allyl-3-(tert-Butylcarbamoyl)-2-oxoindolin-3-yl benzoate]	35.4
CC(=O)OC1(C(=O)NC(C)(C)C)C(=O)N(C)c2ccccc21 (stereo not shown) [Compound 4n, 3-(tert-Butylcarbamoyl)-1-methyl-2-oxoindolin-3-yl acetate]	19.6
CN1C(=O)C(OC(=O)c2cccs2)(C(=O)NC(C)(C)C)c2ccccc21 (stereo not shown) [Compound 4i, 3-(tert-Butylcarbamoyl)-1-methyl-2-oxoindolin-3-yl thiophene-2-carboxylate]	30.8
COc1ccc(C(=O)OC2(C(=O)NC(C)(C)C)C(=O)N(C)c3ccccc32)cc1 (stereo not shown) [Compound 4g, 3-(tert-Butylcarbamoyl)-1-methyl-2-oxoindolin-3-yl 4-methoxy benzoate]	43.5
CC(C)NC(=O)C1(OC(=O)c2ccccc2)C(=O)N(C)c2ccccc21 (stereo not shown)	-5.24
CN1C(=O)C(OC(=O)c2ccccc2)(C(=O)NC(C)(C)C)c2ccccc21 (stereo not shown) [Compound 4a, 3-(tert-Butylcarbamoyl)-1-methyl-2-oxoindolin-3-yl benzoate]	18.6
CN1C(=O)C(OC(=O)c2ccccc2Cl)(C(=O)NC(C)(C)C)c2ccccc21 (stereo not shown) [Compound 4c, 3-(tert-Butylcarbamoyl)-1-methyl-2-oxoindolin-3-yl 2-chloro benzoate]	42.7
CN1C(=O)C(OC(=O)c2cc3ccccc3[nH]2)(C(=O)NC(C)(C)C)c2ccccc21 (stereo not shown)	9
CN1C(=O)C(OC(=O)c2ccccc2)(C(=O)NC2CCCCC2)c2ccccc21 (stereo not shown)	-8.02
CN1C(=O)C(OC(=O)c2ccccn2)(C(=O)NC(C)(C)C)c2ccccc21 (stereo not shown)	5.24
CC(C)(C)NC(=O)C1(OC(=O)c2ccccc2)C(=O)N(Cc2ccccc2)c2ccccc21 (stereo not shown) [Compound 4q, 1-Benzyl-3-(tert-Butylcarbamoyl)-2-oxoindolin-3-yl benzoate]	42.9
CN1C(=O)C(OC(=O)c2ccccc2Br)(C(=O)NC(C)(C)C)c2ccccc21 (stereo not shown) [Compound 4d, 3-(tert-butylcarbamoyl)-1-methyl-2-oxoindolin-3-yl 2-bromo benzoate]	17.3
CN1C(=O)C(OC(=O)c2ccccc2)(C(=O)NC(C)(C)C)c2cc(F)ccc21 (stereo not shown) [Compound 4u, 3-(tert-Butylcarbamoyl)-5-fluoro-1-methyl-2-oxoindolin-3-yl benzoate]	5.24
CCOC(=O)CNC(=O)C1(OC(=O)c2ccccc2)C(=O)N(C)c2ccccc21 (stereo not shown)	14.7
CN1C(=O)C(OC(=O)c2ccccc2)(C(=O)NC(C)(C)C)c2cc(Br)ccc21 (stereo not shown) [Compound 4w, 5-Bromo-3-(tert-Butylcarbamoyl)-1-methyl-2-oxoindolin-3-yl benzoate]	23.4
